Assay results as given in patent US10849875B2, “Cancer specific lipid targeted peptidomimetics” (University of Houston System, priority 2015, dated 2020).
Entries after “also recorded” stand apart in the source; their conditions may differ. Positions of bridges follow the written chain, without caps; N, C: chain ends. Non-standard residues stand in square brackets, D forms with d. Residues, ends and D or L forms follow the SMILES beside them. Chains are numbered I, II in the order given. Gly(N-piperonyl) = O=C(O)CNCc1ccc2c(c1)OCO2; N(4-MeOBn)Gly = COc1ccc(CNCC(=O)O)cc1; Nrpe = C[C@@H](NCC(=O)O)c1ccccc1; Nlys = NCCCCNCC(=O)O

Key:
HCC4017 cells = experiment: FACS binding assay; parameters: species or system human
Experimental: FACS binding assays were conducted to further quantify the binding event of the PPS1 monomer and PPS1D1 dimer.

HBEC30KT cells = experiment: MTS cell viability assay; assay type: cell-based, human
Experimental: After confirming the binding and specificity of the PPS1 on HCC4017 lung cancer cells, whether this compound has any biological effects on HCC4017 lung cancer cells was assayed. The gold standard cell viability (MTS) assay was used. HCC4017 cells and HBEC30kt and HBEC3kt cells were grown in 96 well plates on day 1, then treated by serial dilution of PPS1 and control compound C462 on day 2, and the viable cell count was measured using MTS reagent on day 3. […] On one of the repetitive experiments of this assay, Cystinylated-PPS1 compound was included (FIG. 6A). This was the intermediate compound used to attach the FITC-malemide for binding assays described previously. […] The only difference between this Cystinylated-PPS1 and the original PPS1 compound was just a single cysteine amino acid at the C-terminal. […]
A homo-dimeric version of PPS1 was synthesized. […] The resulting dimeric version of the PPS1 compound, PPS1D1 (FIG. 6C), and the analogous dimeric versions of scrambled PC2, PC2D1 (FIG. 6E), and control compound C462, PC462D1 (FIG. 82), were then evaluated for activity. […] As described above, HCC4017 cells and HBEC30kt and HBEC3kt cells were grown in 96 well plates on day 1, treated serial dilutions of PPS1, PPS1D1, C462 and C462D1 on day 2, and viable cell count was measured using MTS reagent on day 3. […]

H460 xenografts = experiment: Inhibition of growth of H460 lung cancer xenograft; assay type: in vivo, mice; settings: for tumor size reduction: H460 in nude mice, daily dose of 0.5 mg/mL
Experimental: Whether PPS1D1 would inhibit tumor growth in a murine model was examined. H460 cells were implanted in nude mice. Tumors were allowed grow until it reach […]. These xenografts were then treated with a daily dose of […] in four different groups that consist of PPS1D1 alone, docetaxel alone, PPS1D1 and docetaxel together or with the control peptoid (PC462D1) alone. Docetaxel is a standard chemotherapeutic treatment for non-small cell carcinoma. The activity of PPSD1 and its ability to work as a combination treatment were examined. […] This effect was extremely potent and the tumor growth was completely controlled. […] It has been reported that chemotherapy and radiation therapy increase the PS flipping in tumor microenvironment. Therefore, Docetaxel might have helped improve binding of PPS1D1 on cancer cell surface that is now displaying an increased amount of PS to be targeted. After the standard chemotherapy and radiation therapy, the target PS is highly abundant for the drug to recognize and attack.
The effect of PPS1D1 on the growth of H460 xenografts implanted in NOD/SCID immunodeficient mice was examined. Immunodeficient animals were chosen to facilitate the growth of human tumor xenografts. […] Therapy with a control peptoid (PC462D1, 0.25 mg/mouse, 3×/week ip), PPS1D1 (0.25 mg/mouse, 3×/week ip), docetaxel (0.5 mg/kg, 2×/week, ip) or the combination of PPS1D1+docetaxel was initiated when tumors were ˜100 mm3 in volume. […] Tumor tissue was harvested after 4 weeks of therapy and assessed for cell proliferation and apoptosis by immunohistochemistry. […] It is clear from studies with bavituximab that standard chemotherapy (e.g., taxanes) increases the exposure of PS resulting in elevated binding of the PS targeting agent. A similar mechanism can underlie the enhanced activity of docetaxel and PPS1D1.
All animals were housed in a pathogen-free facility with continuous access to food and water. Mice were purchased from the core breeding facility at UT Southwestern. Six to eight-week-old female NOD/SCID mice were injected with 2.5×10^6 H460 cells subcutaneously. Tumor volume was followed by twice weekly measurements with Vernier calipers. Animals were randomized and treatment was initiated with mean tumor volume of each group was 100 mm3. Four different groups used were: (I) control PC462D1, (II) PPS1D1, (III) docetaxel, and (IV) combination of PPS1D1+docetaxel. Mice (n=8/group) were treated with PPS1D1 or PC462D1 in saline by ip injection at a dose of 0.25 mg/mouse, 3 times per week on a M-W-F schedule. Docetaxel from the UT Southwestern Clinical pharmacy was diluted in saline and delivered 2×/week ip at 5 mg/kg. Animals were sacrificed after 4 weeks of therapy. Tumor tissue was snap frozen, sectioned and stained with antibodies specific for phospho-Histone H3 (Millipore, #06-570) and cleaved caspase 3 (Cell Signaling, #9664). Reactivity was developed with appropriate fluorescently conjugated secondary antibodies (Jackson ImmunoResearch) and mounted with Prolong Gold with DAPI (Invitrogen), coverslipped and evaluated by fluorescence microscopy.

COc1ccc(CN(CC(=O)N(CCCCN)CC(=O)N[C@@H](CCCCN)C(=O)N[C@H](CCCCN)C(=O)N[C@@H](CCSC)C(=O)NCCCC[C@H](NC(=O)[C@H](CCSC)NC(=O)[C@@H](CCCCN)NC(=O)[C@H](CCCCN)NC(=O)CN(CCCCN)C(=O)CN(Cc2ccc(OC)cc2)C(=O)CN(C(=O)CN(Cc2ccc3c(c2)OCO3)C(=O)CN[C@H](C)c2ccccc2)[C@H](C)c2ccccc2)C(N)=O)C(=O)CN(C(=O)CN(Cc2ccc3c(c2)OCO3)C(=O)CN[C@H](C)c2ccccc2)[C@H](C)c2ccccc2)cc1 [PPS1D1] (I: H-[Nrpe][Gly(N-piperonyl)][Nrpe][N(4-MeOBn)Gly][Nlys]K[dK]MK-NH2 / II: H-[Nrpe][Gly(N-piperonyl)][Nrpe][N(4-MeOBn)Gly][Nlys]K[dK]M; amide I:9-II:C; N-terminus assumed)
improvement of binding of dimeric version over PPS1 (HCC4017 cells): about 175 fold
Kd (HCC4017 cells; FACS): 80 nM
effect on normal HBEC30KT cells (HBEC30KT cells; 1 and 20 μM): no effect
activity on normal HBEC30KT cells (HBEC30KT cells; serial dilutions): did not have any activity; also recorded: no cytotoxicity
tumor growth (tumor volume vs days post therapy initiation) (H460 xenografts; H460 in NOD/SCID mice, peptoids 0.25 mg/mouse 3x/week ip, docetaxel 0.5 mg/kg 2x/week ip): slowed tumor growth
tumor size reduction (H460 xenografts): strong tumor burden effect; also recorded: equally effective in reducing the size of the tumors
tumor size reduction (H460 xenografts; listed as PPSD1): slightly better effect
animal weight loss (H460 xenografts; at the doses used): did not induce animal weight loss
